The assay concerns the target T1, DrTrxR (Deinococcus radiodurans, UniProt Q9RSY7).
T1 construct: gene DR_1982; residues 2-325, non-cleavable N-terminal His6 tag (MHHHHHH), pET-22b, expressed in E. coli BL21(DE3), Ni-NTA and size exclusion
Briefly: NADPH consumption at […] nm, insulin reduction coupled through DrTrx1 or DrTrx2. The note with it: 0.1 mM NADPH, 0.1 uM DrTrxR, 0.1 uM DrTrx1 or 0.5 uM DrTrx2, bovine insulin, 50 mM Tris-HCl pH 7.4, room temperature. In kind it is biochemical.

Results on one compound are retold here after PMC8615215, “Structural and Biochemical Characterization of Thioredoxin-2 from Deinococcus radiodurans” (Antioxidants, 2021).

T1 sequence (Q9RSY7 entry or part of it): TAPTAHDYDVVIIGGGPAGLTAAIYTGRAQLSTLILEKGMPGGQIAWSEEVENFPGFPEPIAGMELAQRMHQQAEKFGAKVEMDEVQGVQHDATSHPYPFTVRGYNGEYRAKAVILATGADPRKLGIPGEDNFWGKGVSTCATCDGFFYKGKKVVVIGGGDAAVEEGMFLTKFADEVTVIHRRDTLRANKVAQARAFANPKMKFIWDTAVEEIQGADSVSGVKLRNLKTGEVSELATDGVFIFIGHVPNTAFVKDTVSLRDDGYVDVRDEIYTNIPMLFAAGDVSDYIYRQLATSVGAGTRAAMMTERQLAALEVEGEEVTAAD

In the case of `NC(=O)C1=CN([C@@H]2O[C@H](COP(=O)(O)OP(=O)(O)OC[C@H]3O[C@@H](n4cnc5c(N)ncnc54)[C@H](OP(=O)(O)O)[C@@H]3O)[C@@H](O)[C@H]2O)C=CC1` [NADPH], the “NADPH consumption at 340 nm, insulin reduction coupled through DrTrx1 or DrTrx2” value was “In the presence of DrTrxR/NADPH, both DrTrx1 and DrTrx2 caused a notable decrease”.
